According to patent publication US20250325517A1, “ORAL DOSAGE FORMS OF ELRAGLUSIB” (Actuate Therapeutics, Inc., priority 2022, published 2025):
Converted amounts (≈) assume the structure as drawn.

Tests used:
Assay type in all cases: physicochemical
[1] = 50 mg/mL elraglusib solutions in 12 Vehicle Variants, HPLC with and without syringe filtration; conditions: no precipitation or haziness, no visible particulates
Description: An initial study prepared 50 mg/mL elraglusib solutions in 12 Vehicle Variants.
Each Vehicle Variant was made to 50 mg/mL with elraglusib and was tested (with and without syringe filtration) with respect to: (1) elraglusib main peak Area %, (2) related substance RRT 0.96 Area %, and (3) related Substance Area % RRT 0.97.

[2] = Quantitative solubility by HPLC in organic solvents and surfactants; conditions: for solubility: thermodynamic from solid, read-out: Solubility (n = 2) by HPLC
Description: The HPLC method 1 was used for solubility, stability monitoring at 438 nm, and drug loading measurements of the ASD is summarized in Table 2A-31 and the HPLC method 2 was used for stability monitoring at 210 nm, which is summarized in Table 2A-32.

[3] = Photo-Chamber Study 1 (10FV, 50FV, 50V7; visible and UV light)
Description: The photo-chamber and ambient light studies used a RP-HPLC method to monitor the following: • elraglusib concentration and % LC • elraglusib main peak Area % • elraglusib RelS1, elraglusib RelS2, and elraglusib Anhydride peak Area % values.
The three solutions were maintained in both 5-mL glass serum vials and UV-transparent plastic cuvettes (each with and without foil overwrap) and exposed to fractions (approximately 0, 25, 50, 75, and 100%) of ICH Q1B photostability conditions (1200 klux-hr in the visible region and 200 watt-h/m^2 in the UV region) using a calibrated photo-chamber.

[4] = Solubility of elraglusib in simulated intestinal fluid
Description: Solubility of elraglusib in simulated intestinal fluid with varying levels of SIF powder was measured to support formulation development, facilitate interpretation of in vitro dissolution, and support potential modeling and interpretation of in vivo pharmacokinetic data. The obtained solubility data are shown in Table 6-19 and is generally aligned with data previously collected for elraglusib.

SMILES: Cn1cc(C2=C(c3coc4ccc(F)cc34)C(=O)NC2=O)c2cc3c(cc21)OCO3 [elraglusib, 3-(5-fluorobenzofuran-3-yl)-4-(5-methyl-5H-[1,3]dioxolo[4,5-f]indol-7-yl)-1H-pyrrole-2,5-dione]
- solubility in Vehicle Variants (visual) [1]: remained soluble at 50 mg/mL
- solubility ([2]; DCM, no surfactant, organic solvent or mixture): 15.1 mg/mL (≈ 37.3 mM)
- solubility ([2]; H2O with Kolliphor EL 10% w/v, aqueous with cosolvent or surfactant or cyclodextrin, H2O, Kolliphor EL 10% w/v): 0.12 mg/mL (≈ 0.297 mM)
- solubility ([2]; H2O with Labrasol 10% w/v, aqueous with cosolvent or surfactant or cyclodextrin, H2O, Labrasol 10% w/v): 0.16 mg/mL (≈ 0.396 mM)
- solubility ([2]; H2O with Tween 80 10% w/v, aqueous with cosolvent or surfactant or cyclodextrin, H2O, Tween 80 10% w/v): 0.24 mg/mL (≈ 0.594 mM)
- solubility ([2]; THF (with stabilizer BHT), no surfactant, organic solvent or mixture): 25.3 mg/mL (≈ 62.5 mM)
- solubility ([2]; THF with Kolliphor HS 15 10% w/v, organic solvent or mixture, THF, Kolliphor HS 15 10% w/v): 47.6 mg/mL (≈ 118 mM)
- solubility ([2]; THF with Labrasol 10% w/v, organic solvent or mixture, THF, Labrasol 10% w/v): 52.3 mg/mL (≈ 129 mM)
- solubility ([2]; THF with Poloxamer P188 10% w/v, organic solvent or mixture, THF, Poloxamer P188 10% w/v): 49.8 mg/mL (≈ 123 mM)
- solubility ([2]; THF with TPGS 10% w/v, organic solvent or mixture, THF, TPGS 10% w/v): 46.8 mg/mL (≈ 116 mM)
- solubility ([2]; THF with Tween 80 10% w/v, organic solvent or mixture, THF, Tween 80 10% w/v): 49.8 mg/mL (≈ 123 mM)
- Solubility (n = 2) by HPLC ([2]; THF, Kolliphor EL 10% w/v): 48.0 mg/mL (≈ 119 mM)
- Solubility (n = 2) by HPLC ([2]; THF, no surfactant): 52.7 mg/mL (≈ 130 mM)
- solubility ([2]; THF:H2O (90:10) with Labrasol 10% w/v, organic solvent or mixture, THF:H2O (90:10), Labrasol 10% w/v): 54.8 mg/mL (≈ 136 mM)
- Solubility (n = 2) by HPLC ([2]; THF:H2O (90:10), no surfactant): 61.2 mg/mL (≈ 151 mM)
- solubility ([2]; acetone, no surfactant, organic solvent or mixture): 13 mg/mL (≈ 32.2 mM)
- solubility ([2]; organic solvent or mixture, DCM:Acetone (1:1), no surfactant): 19.8 mg/mL (≈ 49 mM)
- solubility ([2]; organic solvent or mixture, DCM:Acetone (5:1), no surfactant): 24.5 mg/mL (≈ 60.5 mM)
- solubility ([2]; organic solvent or mixture, DCM:EtOH (1:1), no surfactant): 16.4 mg/mL (≈ 40.6 mM)
- solubility ([2]; organic solvent or mixture, DCM:MeOH (8:2), no surfactant): 11.8 mg/mL (≈ 29.1 mM)
- % LC loss rate relative to main peak Area % loss rate ([3]; photo-exposure): approximately 6 times
- photo-conversion rate, visible light compared with UV light ([3]; vials and cuvettes): approximately 5 times
- % LC photo-conversion rate in vials (no foil) as % of rate in cuvettes (no foil) ([3]; visible light): approximately 60%
- Average Concentration, 2 hour ([4]; 0.01N HCl, initial pH 2, [NaTC] 0 mM, 2 hour): 2.1 µg/mL
- Average Concentration, 24 hour ([4]; 0.01N HCl, initial pH 2, [NaTC] 0 mM): 1.4 µg/mL
- Average Concentration, 2 hour ([4]; 0.5% Simulated Intestinal Fluid (SIF), initial pH 6.5, [NaTC] 6.7 mM, 2 hour): 6.0 µg/mL
- Average Concentration, 24 hour ([4]; 0.5% Simulated Intestinal Fluid (SIF), initial pH 6.5, [NaTC] 6.7 mM): 4.7 µg/mL
- Average Concentration, 2 hour ([4]; 2% SIF, initial pH 6.5, [NaTC] 26.8 mM, 2 hour): 17.0 µg/mL
- Average Concentration, 24 hour ([4]; 2% SIF, initial pH 6.5, [NaTC] 26.8 mM): 17.3 µg/mL
- Average Concentration, 2 hour ([4]; Blank FaSSIF, initial pH 6.5, [NaTC] 0 mM, 2 hour): 2.5 µg/mL
- Average Concentration, 24 hour ([4]; Blank FaSSIF, initial pH 6.5, [NaTC] 0 mM): 2.6 µg/mL
- Average Concentration, 2 hour ([4]; Blank FeSSIF, initial pH 5, [NaTC] 0 mM, 2 hour): 2.4 µg/mL
- Average Concentration, 24 hour ([4]; Blank FeSSIF, initial pH 5, [NaTC] 0 mM): 2.6 µg/mL
- Average Concentration, 24 hour ([4]; FaSSIF, initial pH 6.5, [NaTC] 3 mM): 5.7 µg/mL
- solubility ([4]; FaSSIF, pH 6.5, fassif, thermodynamic from solid, read-out: measured solubility of crystalline elraglusib): 0.0057 mg/mL (≈ 0.0141 mM)
- Average Concentration, 2 hour ([4]; FeSSIF, initial pH 5, [NaTC] 15 mM, 2 hour): 8.4 µg/mL
- Average Concentration, 24 hour ([4]; FeSSIF, initial pH 5, [NaTC] 15 mM): 11.6 µg/mL
- pH dependence of equilibrium solubility ([4]; simulated intestinal fluid): essentially independent of pH
- solubility thermodynamic at 2 h ([4]; thermodynamic from solid, FaSSIF, initial pH 6.5, [NaTC] 3 mM, 2 hour, read-out: Average Concentration, 2 hour): 0.0052 mg/mL (≈ 0.0129 mM)
